Test in all cases: inhibition of tumour cell growth, NCI panel, 48 h
Experiment [1] relates to A549 NSCLC.
Experiment [2] relates to ACHN renal.
In experiment [3] the test system is CAKI-1 renal.
For experiment [4], the system named is EKVX NSCLC.
The subject of experiment [5] is HCT-15 colon.
Experiment [6] concerns HL-60(TB) leukemia.
Experiment [7] relates to HOP-92 NSCLC.
For experiment [8], the system named is HT29 colon.
Experiment [9] deals with IGROV1 ovarian.
The subject of experiment [10] is KM12 colon.
Experiment [11] concerns NCI-H23 lung.
Experiment [12] relates to NCI/ADR-RES ovarian.
The subject of experiment [13] is OVCAR-5 ovarian.
The subject of experiment [14] is SK-MEL-5 melanoma.
Experiment [15] deals with SNB-19 CNS.
For experiment [16], the system named is UACC-62 melanoma.
The subject of experiment [17] is UO-31 renal.
Experiment [18] relates to NCI-H460 lung.
Experiment [19] concerns PC-3 prostate.

SMILES strings stand for the structures.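 Following 48 hours of exposure in 96-well plates, responses at five concentrations were used to interpolate endpoints linearly. Definition used: TGI = concentration required for complete inhibition of growth.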

In the case of `Cc1ccc(Nc2nc(=O)[nH]c(=O)[nH]2)cc1N=[N+]=[N-]`, the TGI in experiment [1], in experiment [2], in [3], in experiment [4], in experiment [5] and in experiment [6] was above 100 µM each time. The TGI in [7], in experiment [8], in [9], in experiment [10], in experiment [11] and in experiment [12] was above 100 µM each time. Moreover, the TGI in experiment [13], in experiment [14], in experiment [15], in experiment [16] and in experiment [17] was above 100 µM each time.

On to `CCOC(=O)c1cc(=O)oc2c1N(C)c1ncccc1N2`, for which the TGI in experiment [1], in experiment [2], in experiment [3], in experiment [5], in [10] and in experiment [11] was above 100 µM in each case. The TGI in experiment [18], in [12], in experiment [13], in [19], in [15] and in [16] was above 100 µM in each case. For the same molecule, the TGI in [17] is above 100 µM.

For the molecule `O=C(OCC1CCCN2CCCCC12)c1ccncc1` (stereo not drawn), the TGI in [1], in experiment [2], in experiment [3], in experiment [4], in [5] and in [7] was above 100 µM in each case. Also, the TGI in [8], in experiment [9], in experiment [10], in experiment [11], in experiment [18] and in experiment [12] was above 100 µM throughout. Moreover, the TGI in [13], in experiment [19], in [14], in experiment [15], in experiment [16] and in experiment [17] was above 100 µM each time.

Consider `CCc1n[nH]c(=O)n1NC(=O)c1ccccc1C(=O)O`, for which the TGI in experiment [1], in experiment [2], in experiment [4], in experiment [5], in experiment [7] and in experiment [8] was above 100 µM in each case. Moreover, the TGI in experiment [9], in experiment [10], in experiment [11], in experiment [12], in experiment [13] and in experiment [19] was above 100 µM throughout. Besides, the TGI in [14], in [15], in experiment [16] and in experiment [17] was above 100 µM in each case.

In the case of `CCCC#CC(O)(C(=O)OC1CCN(C)CC1)C1CCCCC1` (stereo not drawn), the TGI in experiment [1], in experiment [2], in experiment [3], in experiment [4], in experiment [5] and in experiment [7] was above 100 µM each time. Besides, the TGI in experiment [8], in experiment [9], in [10], in experiment [11], in [18] and in experiment [12] was above 100 µM throughout. For the same molecule, the TGI in experiment [13], in experiment [19], in experiment [14], in experiment [15], in experiment [16] and in [17] was above 100 µM throughout.

Consider `O=C1CCCCC[C@]12SC[C@H]1CON=C12`, for which the TGI in experiment [1] is above 100 µM; in experiment [2] it was above 100 µM; in experiment [3], 58 µM; in experiment [4], above 100 µM; in experiment [5], above 100 µM; in experiment [6], above 100 µM. For the same molecule, the TGI in experiment [7] is 50.2 µM; in experiment [8] it was above 100 µM; in [9], above 100 µM; in [10] it was above 100 µM; in [11] it was above 100 µM; in experiment [18], above 100 µM. The TGI in experiment [12] was 83.4 µM; in [13], above 100 µM; in experiment [14] it was above 100 µM; in [15], above 100 µM; in experiment [16] it was 71.7 µM; in experiment [17], above 100 µM.

As to `CC(NC(=O)C(N)CC(=O)O)NC(=O)N1CCOCC1` (stereo not drawn), the TGI in experiment [1], in [2], in experiment [3], in [4], in experiment [5] and in [8] was above 100 µM throughout. Also, the TGI in experiment [9], in experiment [10], in experiment [11], in experiment [18], in experiment [12] and in experiment [13] was above 100 µM throughout. In addition, the TGI in experiment [19], in experiment [14], in experiment [15], in experiment [16] and in experiment [17] was above 100 µM throughout.

Take `CC(=N/NC(=S)N1CCCCC1)/C(C)=N\NC(=S)N1CCCCC1`: the TGI was 4.04 µM in experiment [1]; 2.92 µM in experiment [2]; 3.23 µM in [3]; 3.11 µM in [4]; 5.31 µM in experiment [5]; 2.85 µM in experiment [7]. The TGI was 4.07 µM in [8]; 3.13 µM in experiment [9]; 4.82 µM in [11]; 3.6 µM in [18]; 5.22 µM in experiment [12]; 3.82 µM in [13]. Moreover, the TGI in experiment [14] was 3.07 µM; in [15], 3.54 µM; in experiment [17], 2.79 µM.

On to `c1ccc(/N=C2\c3ccccc3CN2c2ccccn2)nc1`, for which the TGI in [1] was above 100 µM; in experiment [2], above 100 µM; in experiment [3], above 100 µM; in [4], above 100 µM; in experiment [5] it was above 100 µM; in experiment [7] it was 72.7 µM. Also, the TGI in experiment [8], in experiment [9], in experiment [10], in [11], in experiment [18] and in [13] was above 100 µM each time. Moreover, the TGI in experiment [19], in experiment [14], in experiment [15], in experiment [16] and in experiment [17] was above 100 µM each time.

As for `O=C(NCCCCNCCCNC(=O)c1cc(-c2ccccc2)nc2ccccc12)c1cc(-c2ccccc2)nc2ccccc12`, the TGI was 3.01 µM in experiment [1]; 3.3 µM in experiment [2]; 3.82 µM in experiment [3]; 3.52 µM in experiment [4]; 3.46 µM in experiment [5]; 3.01 µM in [7]. Besides, the TGI in experiment [8] is 3.1 µM; in experiment [9], 2.88 µM; in experiment [11] it was 4.02 µM; in [18] it was 3.39 µM; in [12], 5.09 µM; in experiment [19] it was 2.98 µM. Moreover, the results for the TGI in experiment [14], in experiment [16] and in [17] were 2.75 µM, 3.9 µM and 3.21 µM, respectively.

Take `O=C1/C(=C/c2cccs2)NC(=S)N1CN1CCOCC1`: the TGI in experiment [1], in [2], in experiment [4], in experiment [5], in experiment [7] and in [8] was above 100 µM throughout. The TGI in experiment [9], in [10], in experiment [11], in experiment [12], in experiment [13] and in [19] was above 100 µM in each case. Besides, the TGI in experiment [14], in experiment [15], in [16] and in experiment [17] was above 100 µM in each case.

Regarding `Cn1c2ccccc2n2c(=O)c3cccnc3c(C#N)c12`, the TGI in experiment [2], in experiment [3], in experiment [4], in [5], in experiment [7] and in experiment [8] was above 100 µM throughout. Besides, the TGI in experiment [10], in [11], in [18], in experiment [12], in [13] and in experiment [14] was above 100 µM in each case.

Turning to `Nc1nc(N)c2nc(-c3ccco3)cnc2n1`, the TGI in [1] is above 100 µM; in experiment [2] it was above 100 µM; in experiment [3], above 100 µM; in experiment [4], above 100 µM; in experiment [5], above 100 µM; in experiment [6], 89.6 µM. In addition, the TGI in experiment [7], in [8], in [9], in experiment [10], in [11] and in experiment [18] was above 100 µM throughout. The TGI in [13], in experiment [14], in experiment [15], in [16] and in experiment [17] was above 100 µM each time.

Take `CC(=O)O[C@H]1C(=O)[C@@]2(C)[C@H]([C@H](OC(=O)c3ccccc3)[C@]3(O)C[C@H](OC(=O)[C@H](O)[C@@H](NC(=O)CC(C)C)c4ccccc4)C(C)=C1C3(C)C)[C@]1(OC(C)=O)CO[C@@H]1C[C@@H]2O`: the TGI in experiment [1] is above 10 µM; in experiment [2] it was above 10 µM; in experiment [3], above 10 µM; in experiment [4] it was above 10 µM; in [5] it was above 10 µM; in [6], 0.00899 µM. Moreover, the TGI in experiment [7] was 9.85 µM; in experiment [8], 0.0296 µM; in experiment [9], above 10 µM; in [11], above 10 µM; in experiment [18], above 10 µM; in experiment [12] it was above 10 µM. In addition, the TGI in [13], in experiment [14], in experiment [15], in experiment [16] and in [17] was above 10 µM each time.

For the molecule `CC1C(c2ccc3c(c2)OCO3)c2cc3c(cc2OC1N1CCCCC1)OCO3` (stereo not drawn), the TGI in experiment [1] was above 100 µM; in experiment [2], above 100 µM; in [3], 79.9 µM; in [4], above 100 µM; in [5] it was above 100 µM; in [8], above 100 µM. The TGI in experiment [9], in experiment [10], in experiment [11], in experiment [18], in [12] and in experiment [13] was above 100 µM each time. In addition, the TGI in experiment [19], in experiment [14], in [15], in experiment [16] and in [17] was above 100 µM each time.

As to `Fc1cc(-c2ncc(Cl)cc2Cl)c2cccccc1-2`, the TGI in experiment [1], in experiment [2], in experiment [3], in experiment [4], in [5] and in experiment [8] was above 100 µM each time. Besides, the TGI in experiment [9], in experiment [10], in [11], in experiment [18], in [12] and in [13] was above 100 µM in each case. The TGI in experiment [19], in [14], in [15], in experiment [16] and in experiment [17] was above 100 µM throughout.

Turning to `COc1ccc(Nc2nc(N)c(C(=O)c3ccccc3)s2)cc1`, the TGI in [1] was above 74.5 µM; in experiment [2], above 100 µM; in [3], 33.3 µM; in experiment [4], 58.2 µM; in experiment [5] it was 26.2 µM; in experiment [6], 0.271 µM. The TGI in [7] was above 92.7 µM; in experiment [8] it was 15.4 µM; in experiment [9], 37 µM; in experiment [10], above 19.8 µM; in [11], above 60.3 µM; in [18], 19.9 µM. For the same molecule, the TGI in experiment [13] was above 78.4 µM; in [19], above 62.4 µM; in experiment [14] it was 4.01 µM; in experiment [15] it was above 100 µM; in experiment [16] it was above 100 µM; in [17], 44.2 µM.

The values above are taken from PubChem BioAssay (NCI).
